These results are taken from ChEMBL document CHEMBL4739717, “Methods of treating cartilage disorders through inhibition of clk and dyrk” (2020).

Assay [1] in a line: Induction of chondrogenesis in human MSC assessed as incubated for 6 days by rhodamine B and Nile red staining based imaging analysis. In kind it is functional. Particulars: bmmsc.
Assay [2] deals with Dual specificity tyrosine-phosphorylation-regulated kinase 1A (Homo sapiens, UniProt Q13627). Briefly: Inhibition of recombinant DYRK1A (unknown origin) using Ser/Thr 18 peptide as substrate incubated for 1 hr in presence of ATP by FRET assay.
Assay [3] is described as follows: Effect on Wnt signaling pathway in human SW480 cells harbouring TCF/LEF luciferase reporter gene and SP5-Luc reporter gene incubated for 36 to 48 hrs by luminescence assay. In kind it is cell-based.
The nature of assay [4]: Induction of chondrogenesis in human MSC assessed as maximum activity at 30 nM incubated for 6 days by rhodamine B and Nile red staining based imaging analysis relative to control. In kind it is functional. Particulars: BMMSC, 144 h, time 6 day.

Consider `Cn1cc(-c2cnc3[nH]nc(-c4nc5c(-c6cccc(F)c6)nccc5[nH]4)c3c2)cn1`, for which the EC50 was 30 nM in assay [1], 39 nM in assay [2] and 11.1 nM in assay [3]. In addition, the Emax at 0.03 µM in assay [4] is 74.9%.
On to `CC(C)Nc1cncc(-c2cnc3[nH]nc(-c4nc5c(-c6cc(F)cc(NCCN(C)C)c6)nccc5[nH]4)c3c2)c1`, for which the EC50 in assay [1] turned out to be 30 nM; in assay [2], 5 nM; in assay [3] it was 154 nM. Besides, the Emax at 0.03 µM in assay [4] worked out at 82.9%.
For `CN1CCN(c2cncc3[nH]c(-c4n[nH]c5ccc(-c6cncc(N)c6)cc45)cc23)CC1`, the EC50 in assay [1] came to 30 nM; in assay [2] it was 3 nM; in assay [3] it was 8250 nM. Further, the Emax at 0.03 µM in assay [4] amounted to 50.9%.
In the same order, the values of `O=C(Nc1cncc(-c2ccc3[nH]nc(-c4cc5cnccc5[nH]4)c3c2)c1)C1CCC1` are 10 nM, 2 nM, 75 nM and 213%.
For the compound `O=C(Nc1cncc(-c2cnc3[nH]nc(-c4cc5c(-c6ccccc6F)nccc5[nH]4)c3c2)c1)C1CC1`, the figures for the EC50 in assay [1], in assay [2] and in assay [3] were 30 nM, 20 nM and 321 nM, respectively. The Emax at 0.03 µM in assay [4] is 78.1%.
The like results for `CN(C)Cc1cncc(-c2ccc3[nH]nc(-c4cc5cnccc5[nH]4)c3n2)c1` were, in that order, 30 nM, 13 nM, 1140 nM and 119%.
The like results for `CC(C)Nc1cncc(-c2cnc3[nH]nc(-c4nc5c(-c6ccoc6)nccc5[nH]4)c3c2)c1` were, in that order, 30 nM, 19 nM, 52.6 nM and 72%.
On to `CCCCC(=O)Nc1cncc(-c2ccc3[nH]nc(-c4cc5c(N6CCCCC6)nccc5[nH]4)c3n2)c1`, for which the EC50 in assay [1] is 30 nM; in assay [2], 43 nM; in assay [3], 4050 nM. Also, the Emax at 0.03 µM in assay [4] was determined as 54.7%.
For `CC(C)CC(=O)Nc1cncc(-c2ccc3[nH]nc(-c4cc5c(-c6ccncc6)nccc5[nH]4)c3c2)c1`, the EC50 in assay [1] was 30 nM; in assay [2], 25 nM; in assay [3], greater than 10000 nM. In addition, in assay [4], the maximum response (Emax) at 0.03 µM stood at 95.5%.
The like results for `CCCC(=O)Nc1cncc(-c2ccc3[nH]nc(-c4nc5c(-c6ccsc6)ccnc5[nH]4)c3c2)c1` were, in that order, 30 nM, 17 nM, 7.7 nM and 72.6%.
`O=C(Nc1cncc(-c2ccc3[nH]nc(-c4nc5c(-c6ccncc6)ccnc5[nH]4)c3n2)c1)C1CCCCC1`: the figures for the EC50 in assay [1], in assay [2] and in assay [3] were 10 nM, 26 nM and 999 nM, respectively. The Emax at 0.03 µM in assay [4] was determined as 68.6%.
Take `Cc1cn(-c2nccc3[nH]c(-c4n[nH]c5ccc(-c6cncc(NC(=O)CC(C)C)c6)cc45)nc23)cn1`: the EC50 in assay [1] came to 30 nM; in assay [2], 9 nM; in assay [3], 10.4 nM. Moreover, in assay [4], the Emax at 0.03 µM stood at 73.7%.
The like results for `O=C(Nc1cnccc1NC(=O)C1CC1)c1n[nH]c2ccc(-c3cncc(CN4CCCCC4)c3)cc12` were, in that order, 30 nM, 38 nM, 120 nM and 53.7%.
The like results for `c1cncc(-c2ccc3[nH]nc(-c4cc5cnccc5[nH]4)c3c2)c1` were, in that order, 10 nM, 1 nM, 40 nM and 342%.
In the same order, the values of `O=C(Nc1cncc(-c2ccc3[nH]nc(-c4nc5c(N6CCCCC6)cncc5[nH]4)c3c2)c1)C1CCC1` are 30 nM, 4 nM, 39 nM and 106%.
For the compound `O=C(Cc1ccccc1)Nc1cncc(-c2ccc3[nH]nc(-c4nc5c(-c6ccoc6)cncc5[nH]4)c3c2)c1`, the results for the EC50 in assay [1], in assay [2] and in assay [3] were 30 nM, 17 nM and 33 nM, respectively. Moreover, the Emax at 0.03 µM in assay [4] was 102%.
The like results for `CN1CCN(c2nccc3[nH]c(-c4n[nH]c5ccc(-c6cncc(N)c6)nc45)nc23)CC1` were, in that order, 100 nM, 45 nM, greater than 10000 nM and 135%.
The like results for `CS(=O)(=O)NCc1cc(F)cc(-c2nccc3[nH]c(-c4n[nH]c5ccc(-c6cncnc6)cc45)nc23)c1` were, in that order, 30 nM, 96 nM, 40.5 nM and 73.1%.
In the same order, the values of `CC(C)CC(=O)Nc1cncc(-c2ccc3[nH]nc(-c4cc5c(-c6ccncc6)cncc5[nH]4)c3c2)c1` are 30 nM, 4 nM, 875 nM and 70.2%.
Turning to `c1cncc(-c2ccc3[nH]nc(-c4nc5c(-c6cccnc6)cncc5[nH]4)c3n2)c1`, the figures for the EC50 in assay [1], in assay [2] and in assay [3] were 30 nM, 47 nM and greater than 10000 nM, respectively. Further, the Emax at 0.03 µM in assay [4] was 83.8%.
In the same order, the values of `CN(C)Cc1cncc(-c2cc3c(-c4cc5c(-c6ccncc6)cncc5[nH]4)n[nH]c3cn2)c1` are 30 nM, 20 nM, greater than 10000 nM and 51.7%.
As to `FC1(F)CCN(Cc2cncc(-c3ccc4[nH]nc(-c5cc6c(-c7ccccn7)cccc6[nH]5)c4n3)c2)C1`, the values for the concentration for a half-maximal effect (EC50) in assay [1], in assay [2] and in assay [3] were 10 nM, 33 nM and 432 nM, respectively. Further, the Emax at 0.03 µM in assay [4] turned out to be 81.9%.
The like results for `CN1CCN(c2nccc3[nH]c(-c4n[nH]c5cnc(-c6cncc(NC(=O)C(C)(C)C)c6)cc45)cc23)CC1` were, in that order, 10 nM, 3 nM, 1880 nM and 88.2%.
The like results for `CC(C)C(=O)Nc1cncc(-c2cnc3[nH]nc(-c4cc5c(N6CCN(C)CC6)nccc5[nH]4)c3c2)c1` were, in that order, 30 nM, 7 nM, greater than 10000 nM and 61.6%.
The like results for `CC(C)(C)CC(=O)Nc1cncc(-c2cc3c(-c4cc5c(-c6ccccc6F)nccc5[nH]4)n[nH]c3cn2)c1` were, in that order, 30 nM, 50 nM, 1030 nM and 54.3%.
Consider `Nc1cncc(-c2ccc3[nH]nc(-c4cc5c(N6CCCCC6)ccnc5[nH]4)c3c2)c1`, for which the EC50 was 30 nM in assay [1], 33 nM in assay [2] and 604 nM in assay [3]. For the same compound, the Emax at 0.03 µM in assay [4] is 130%.
In the same order, the values of `Fc1cccc(-c2cncc3[nH]c(-c4n[nH]c5ncc(-c6cncc(CN7CCCCC7)c6)cc45)cc23)c1` are 10 nM, 74 nM, 3120 nM and 108%.
In the same order, the values of `CC(C)(C)C(=O)Nc1cncc(-c2ccc3[nH]nc(-c4nc5c(-c6ccc(Cl)s6)cncc5[nH]4)c3n2)c1` are 10 nM, 70 nM, 551 nM and 84.7%.
In the same order, the values of `CCNCc1cncc(-c2cc3c(-c4nc5c(-c6ccsc6)nccc5[nH]4)n[nH]c3cn2)c1` are 30 nM, 2 nM, 59.3 nM and 67.7%.
With `O=C(Nc1cncc(-c2cc3c(-c4cc5cnccc5[nH]4)n[nH]c3cn2)c1)C1CC1`, the EC50 amounted to 30 nM in assay [1], 4 nM in assay [2] and 1540 nM in assay [3]. The Emax at 0.03 µM in assay [4] stood at 58.5%.
In the same order, the values of `Fc1ccc(-c2nccc3[nH]c(-c4n[nH]c5ccc(-c6cncc(CN7CCCC7)c6)cc45)cc23)cc1` are 30 nM, 60 nM, 3620 nM and 98.5%.
Turning to `CS(=O)(=O)NCc1cc(F)cc(-c2cncc3[nH]c(-c4n[nH]c5ccc(-c6cncnc6)nc45)cc23)c1`, the EC50 in assay [1] amounted to 10 nM; in assay [2], 76 nM; in assay [3] it was 1030 nM. The Emax at 0.03 µM in assay [4] stood at 106%.
The like results for `CCNCc1cncc(-c2cc3c(-c4cc5c(-c6ccccc6F)ccnc5[nH]4)n[nH]c3cn2)c1` were, in that order, 30 nM, 70 nM, greater than 10000 nM and 270%.
The like results for `CC(C)Nc1cncc(-c2ccc3[nH]nc(-c4nc5c(-c6ccoc6)nccc5[nH]4)c3n2)c1` were, in that order, 30 nM, 18 nM, 297 nM and 76.2%.
In the same order, the values of `c1cncc(-c2cc3c(-c4nc5c(-c6cccnc6)cccc5[nH]4)n[nH]c3cn2)c1` are 100 nM, 42 nM, 92.4 nM and 93%.
As to `CN(C)Cc1cncc(-c2ccc3[nH]nc(-c4cc5c(N6CCCCC6)nccc5[nH]4)c3c2)c1`, the results for the EC50 in assay [1], in assay [2] and in assay [3] were 10 nM, 33 nM and 4710 nM, respectively. In addition, the Emax at 0.03 µM in assay [4] was 220%.
The like results for `O=C(Nc1cncc(-c2cc3c(-c4cc5c(-c6ccc(F)cc6)nccc5[nH]4)n[nH]c3cn2)c1)C1CC1` were, in that order, 30 nM, 74 nM, 844 nM and 96.2%.
For the compound `CN(C)Cc1cncc(-c2cnc3[nH]nc(-c4cc5c(-c6ccccc6F)cncc5[nH]4)c3c2)c1`, the concentration for a half-maximal effect (EC50) in assay [1] is 30 nM; in assay [2], 12 nM; in assay [3] it was 2490 nM. For the same compound, the Emax at 0.03 µM in assay [4] stood at 60.9%.
In the same order, the values of `Nc1cncc(-c2ccc3[nH]nc(-c4nc5c(-c6ccccc6F)ccnc5[nH]4)c3c2)c1` are 30 nM, 5 nM, 2 nM and 113%.
